# What was measured:
# [1] = Ability to inhibit corrosion by polarization resistance (Rp), iron electrodes; design: ability to inhibit corrosion: concentration or dose not given beside the values; settings: for Ability to inhibit corrosion After 20 min. / Ability to inhibit corrosion After 15 hrs / Ability to inhibit corrosion Peak: Electrode Fe; for ability to inhibit corrosion / Rp: iron electrode, sodium salt
# [2] = Ability to inhibit corrosion by polarization resistance (Rp), low-carbon steel electrodes (X65); settings: Electrode X65
SMILES,Ability to inhibit corrosion After 20 min. [1] [%],Ability to inhibit corrosion After 15 hrs [1] [%],Ability to inhibit corrosion Peak [1] [%],ability to inhibit corrosion ([1]; after the elapse of 20 minutes) [%],ability to inhibit corrosion ([1]; after the elapse of 15 hours) [%],ability to inhibit corrosion ([1]; peak) [%],Ability to inhibit corrosion After 20 min. [2] [%],Ability to inhibit corrosion After 15 hrs [2] [%],Ability to inhibit corrosion Peak [2] [%],Rp ([1]; after the elapse of 20 minutes),Rp ([1]; after the elapse of 15 hours),Rp ([1]; peak),ability to inhibit corrosion ([1]; after the elapse of 25 minutes) [%]
"CC1(C)SCCN1C(=O)c1ccccc1C(=O)O [Example 1, N-(2-carboxybenzoyl)-2,2-dimethylthiazolidine]",48,96.3,98.5,47.6,96.3,98.5,71.0,94.7,97.2,–,–,–,–
"CC1(C)SCCN1C(=O)C=CC(=O)O [Example 2, N-(2-carboxylvinylcarbonyl)-2,2-dimethylthiazolidine]",–,–,–,55.0,95.5,98.1,–,–,–,200 Ω,2000 Ω,about 4800 Ω,–
"CC1(C)SCCN1C(=O)CCC(=O)O [Example 3, N-(2-carboxylethylcarbonyl)-2,2-dimethylthiazolidine]",71.4,97.8,98.1,–,97.8,98.1,–,–,–,–,–,–,71.4
"CC1(C)SCCN1C(=O)C1CCCCC1C(=O)O (stereo not drawn) [Example 4, N-(2-carboxylcyclohexylcarbonyl)-2,2-dimethylthiazolidine]",–,–,–,95.9,98.3,98.8,–,–,–,640 Ω,5300 Ω,about 7450 Ω,–

# From US6534659B2, “Sufidomaidocarboxylic acids, method for production thereof, and use therefor” (Nippon Shokubai Co., Ltd., priority 2000, dated 2003)
